Experiments:
Type in all cases: cell-based
[1] = test system: PI-resistant HIV-1 strain 11800; test: microbe, parasite or virus in culture; conditions: PI-resistant 11800, PBMCs, 10-fold serial dilution; read-out: EC50
From the text: (§1) The Tzm-bl-derived dual Tat reporter; TZM-bl/Tat/Rluc (bl-DTR) cells were established from TZM-bl cells using two Dox-inducible lentiviral expression cassettes cloned with Flag-tagged Tat86 and the R-Luc gene, as described in our previous study ([11]). TZM-bl, A3.01, J1.1, and J-Lat 6.3 cells as well as the HIV-1 molecular clone pNL4-3, pNL(AD8), ARV-resistant HIV-1 strains, and HIV-1NL43-IRES-eGFP (pBR43IeG-nef^+, gifted by Dr. Frank Kirchhoff) ([52]) were provided by the National Institute of Health HIV Reagent Program (NIH, Bethesda, MD, USA). HeLa (CCL-2) and 293T (CRL-3216) cell lines were purchased from the American Type Culture Collection (ATCC, Manassas, VA, USA). The bl-DTR, TZM-bl, HeLa, and 293T cells were cultured in Dulbecco’s modified Eagle’s medium supplemented with 1% penicillin–streptomycin and 10% (vol/vol) heat-inactivated fetal bovine serum (all from Gibco-BRL, Gaithersburg, MD, USA), and 1 µg/mL of puromycin and 200 µg/mL of zeocin were additionally supplemented for the bl-DTR cells. PBMCs were purchased from AllCells (Alameda, CA, USA) and cultured as previously described ([12]). The information on ARV-resistant HIV-1 strains was described in previous reports as follows: NNRTI-resistant 12241 and 12243 ([53]); NRTI-resistant 7396, 7406, and 7407 ([54]); INSTI-resistant 11847 and 11849 ([55], [56]); and PI-resistant 11800 and 11803 ([57]). Each molecular HIV-1 clone was transfected to 293T cells, as previously described ([58]), to obtain infectious HIV-1 particles. Virus-containing cell culture supernatants were collected 3 days after transfection, and filtered through a 0.45-µm membrane filter (Millipore Sigma, Burlington, MA, USA) to remove cell debris. The viral titration was performed as described previously ([59]) with some minor modifications. In brief, 1 × 10^4 TZM-bl cells seeded in 96-well plates were infected with 200 µL of virus-containing medium diluted serially twofold. The incubation was for 2 days and the experiment was performed in triplicate; the infection time minimized the virus spread ([59]). The titration of the infectious viral particles was performed with a ß-Gal staining assay using the ßeta-Galactosidase Staining Kit (Mirus Bio, Madison, WI, USA) following the manufacturer’s protocols. In brief, the infected cells were washed with phosphate-buffered saline (PBS) and fixed using a Cell Fixative Working solution. The cells were washed with PBS and stained using the Cell Staining Working Solution containing X-gal. The infected blue-colored cells were counted under a microscope (100× magnification). The infectious virus titer was determined as a mean value of blue-colored cells count × dilution factor and used for determining the multiplicity of infection (MOI) in each infection experiment.
(§2) The inhibitory effects of the compounds on viral replication were determined with some minor modifications, as previously described ([12], [62]). […] PBMCs (4 × 10^5) pre-activated with PHA-M for 3 days were washed with fresh media to remove excess PHA-M and subsequently infected with HIV-1NL4-3 or HIV-1AD8 or PIs-resistant HIV-1 strains as A3.01 infection. After infection, the infectious media were replaced with fresh media supplemented with international 10 units (IU)/mL of IL-2 and the indicated compounds. At 72 h after infection, the inhibitory effect of the compounds on viral replication was determined by measuring the p24 amount, an HIV capsid protein, using an HIV-1 p24 […] kit (PerkinElmer, Waltham, MA, USA). Cell viability was determined as described above. The inhibitory effects on provirus reversing in J1.1 and J-Lat 6.3 cells were determined as previously described ([12], [41], [63]) with some minor modifications.

[2] = test system: PI-resistant HIV-1 strain 11803; test: microbe, parasite or virus in culture; conditions: PI-resistant 11803, PBMCs, 10-fold serial dilution; read-out: EC50
From the text: as §1, §2

HIV-1NL4-3 [3] = test: HIV-1 replication in PBMCs (p24 […]); conditions: Table S1, WT virus, 10-fold serial dilution, read-out: EC50
Experimental: (§3) The p24 level from the cell supernatant was subsequently determined using a p24 […] kit (PerkinElmer). In parallel, the cell viability was determined without viral infection because of the viral cytopathic effect. […] In parallel, cell viability was determined. The data (A and B) are presented as the mean ± SD (n = 3). (C) PBMCs (4 × 10^5) infected with HIV-AD8 at an MOI of 0.1 were treated with 1.5 µM of the compounds or ARVs for 3 days. The levels of p24 and cell viability were subsequently determined. (D) J1.1 cells were cultured with the compounds ([…]) under 50 ng/mL phorbol myristate acetate (PMA) treatment for 2 days. The level of p24 was subsequently determined. (E) J-Lat 6.3 cells were treated with the compounds (1.5 µM) under 1 µg/mL of PMA for 2 days. The GFP-positive cell population was analyzed using flow cytometry. The data are represented as a value relative to the DMSO-treated vehicle (D) and a percent of the GFP^+ cell population (E) as mean ± SD (n = 3).
as §2, with “modifications. Briefly, 5 × 10^4 persistently HIV-1-infected J1.1 or J-Lat 6.3 cells were cultured in either the presence or absence of the compounds at a final concentration of 1.5 µM and treated with PMA (50 ng/mL for J1.1 cells, 1 µg/mL for J-Lat 6.3 cells). Two days after treatment, the levels of viral production were determined using p24 […] for J1.1 cells and flow cytometry analysis for GFP-expressing J-Lat 6.3 cells.” for “modifications.”

[4] = test system: NRTI-resistant HIV-1 strain 7407; test: microbe, parasite or virus in culture; conditions: Human immunodeficiency virus 1, TZM-bl
Experimental: (§4) Fig 7 (A–C) TZM-bl cells (1 × 10^4 cells/well) cultured in a 96-well plate were treated with fivefold serial dilutions of the indicated compound or ARV for 1 h before infection with the HIV-1NL4-3 or ARV-resistant HIV-1 strains at an MOI of 1, respectively. At 48 h after infection, the EC50 values were determined using an F-Luc activity. The symbols represent the fold-change values of EC50 against each mutant virus relative to the wild-type (WT) virus. (D) PBMCs (5 × 10^4 cells/well) were infected with the HIV-1NL4-3 and PIs-resistant HIV-1 strain at an MOI of 0.1, respectively. Subsequently, the PBMCs were treated with 10-fold serial dilutions of the indicated compounds or PI. At 3 days after infection, the EC50 values on the viral replication were determined using a p24 […] assay kit. (E) The inhibitory kinetics for the WT and ARV-resistant viruses. TZM-bl cells infected with WT or ARV-resistant viruses were cultured upon fivefold serial dilutions of each compound for 2 days and the infectivity was determined using an F-Luc activity.
as §1

[5] = test system: NRTI-resistant HIV-1 strain 7406; test: microbe, parasite or virus in culture; conditions: Human immunodeficiency virus 1, TZM-bl
Experimental: as §4, §1

[6] = test system: NRTI-resistant HIV-1 strain 7396; test: microbe, parasite or virus in culture; conditions: Human immunodeficiency virus 1, TZM-bl
Experimental: as §4, §1

HIV-1NL4-3 [7] = test: HIV-1 infectivity in TZM-bl cells (F-Luc); conditions: Human immunodeficiency virus 1, TZM-bl, 48 h, Table S1, WT virus, TZM-bl, fivefold serial dilutions, MOI 1, 48 h
Experimental: (§5) The TZM-bl cells (also referred to as JC53BL-13) expressing human CD4, CXCR4, and CCR5 carrying the F-Luc and lacZ genes downstream of the HIV-1 LTR promoter ([60]) were used to determine the inhibitory effect of the compounds on HIV-1 infection, as previously described ([11], [12], [61]). In brief, 1 × 10^4 cells were cultured in 96-well plates for 24 h and subsequently treated with compounds at the indicated concentrations. Without replacement of the culture medium, the cells were subsequently infected with the HIV-1NL4-3 wild-type or ARV-resistant HIV-1 strains at an MOI of 1 to determine the exact inhibitory effect of compounds on a single-round infection. After 48 h, the inhibitory effect of the compounds was determined using a Bright Glo luciferase assay kit (Promega) or β-Galactosidase Enzyme Assay kit (Promega). The infectivity data were presented as a percentage relative to the dimethyl sulfoxide (DMSO) control (vehicle). Cell viability was determined using the resazurin-based PrestoBlue Cell Viability Reagent (Thermo Fisher Scientific, Waltham, MA, USA) following the manufacturer’s instructions.

HIV-1NL4-3 [8] = test: Time-of-addition assay in TZM-bl cells; conditions: HIV-1NL4-3 MOI 1, 9 and 13 1.5 μM, T-20 1 µM, triptolide 5 nM, ARVs 1 µM, F-Luc at 54 h
Experimental: Fig 5 (A) Time-of-addition assay. […] Subsequently, the cells were treated with the compounds at the indicated time points (0, 1, 2, 4, 6, 8, 10, 12, 24, 30, 36, 42, and 48 h) after HIV-1 infection. The final concentrations of compounds are described in Materials and Methods. Viral activity according to the timing of drug addition was measured as F-Luc activity at 54 h after infection. The relative activities are represented as the mean ± SD (n = 3) compared with the activity observed 54 h post-infection. The relative time frames associated with each HIV-1 infection step are defined based on the time frame of susceptibility to the drug that blocks that particular infection step. […] At 16 h after infection, the viral reverse transcription (RT) product (viral cDNA) level was determined by quantitative real-time PCR (RT-qPCR) using gag and 18S rRNA primer sets and represented as the mean ± SD (n = 3) normalized against the amount of the 18S rRNA compared with the DMSO control. **P < 0.01 compared with the vehicle (DMSO). (C) An in vitro integrase (IN) assay was performed with 10 µM of the indicated compounds following the manufacturer’s protocol. **P < 0.01 compared with vehicle (DMSO). (D) A3.01 cells were infected with HIV-1 upon treatment with the indicated compounds (5 µM) and ARVs (EFV and DTG) as the experimental controls. At 40 h after infection, cellular chromosomal DNA was purified, and the integrated proviral DNA was detected through nested Alu-PCR amplification.
A time-of-addition assay was performed as previously described ([25]) with minor modifications. […] Reference drug and test compounds were subsequently added at the indicated time (0, 1, 2, 4, 6, 8, 10, 12, 24, 30, 36, 42, and 48 h after infection). Final concentrations were as follows: compounds 9 and 13 (1.5 μM), T-20 (1 µM), Triptolide (5 nM), and ARVs (AZT, EFV, DTG, RAL) (1 µM). The viral activity according to the timing of drug addition was measured using a Bright Glo luciferase assay kit (Promega). Virus activity curves present a % activity relative to the activity observed at 54 h after infection, and the data are presented as the mean ± standard deviation (SD) (n = 3). The relative time frame associated with each HIV-1 infection step was defined based on the sensitivity to each drug that blocks a particular infection step.

[9] = Cell viability of TZM-bl cells (PrestoBlue); conditions: human; TZM-bl cells, absence of HIV-1 infection; mean ± SD; read-out: CC50
Experimental: as §5

[10] = Cell viability of A3.01 cells; conditions: human; A3.01 cells, absence of HIV-1 infection; mean ± SD; read-out: CC50
Experimental: as §3
as §2, with “modifications. Briefly, 5 × 10^4 persistently HIV-1-infected J1.1 or J-Lat 6.3 cells were cultured in either the presence or absence of the compounds at a final concentration of 1.5 µM and treated with PMA (50 ng/mL for J1.1 cells, 1 µg/mL for J-Lat 6.3 cells). Two days after treatment, the levels of viral production were determined using p24 […] for J1.1 cells and flow cytometry analysis for GFP-expressing J-Lat 6.3 cells.” for “modifications.”

Cell viability of PBMCs = conditions: human; PBMCs, absence of HIV-1 infection; mean ± SD; read-out: CC50
Experimental: as §3
as §2, with “modifications. Briefly, 5 × 10^4 persistently HIV-1-infected J1.1 or J-Lat 6.3 cells were cultured in either the presence or absence of the compounds at a final concentration of 1.5 µM and treated with PMA (50 ng/mL for J1.1 cells, 1 µg/mL for J-Lat 6.3 cells). Two days after treatment, the levels of viral production were determined using p24 […] for J1.1 cells and flow cytometry analysis for GFP-expressing J-Lat 6.3 cells.” for “modifications.”

[11] = test system: HIV-1NL4-3 IRES-eGFP-nef+; test: eGFP-encoding HIV-1 infection of TZM-bl cells; conditions: 9, 10, 13 1.5 μM, 20, 21, 22 4 μM, seliciclib 10 µM, triptolide 5 nM, DTG 2 nM, EFV 2 nM, 2 days
Experimental: Fig 4 (A) Comparison of the chemical structures between prominent derivatives (9, 10, and 13) and non-functional derivatives (20, 21 and 22). (B) bl-DTR cells were treated with serial dilutions of each compound upon Dox for 24 h. The activities of F-Luc and R-Luc were determined using the Dual-Glo -Luciferase assay system. (C) TZM-bl cells were infected with the HIV-1NL4-3 strain at an MOI of 1 upon treatment of compounds. At 48 h after infection, the viral infectivity and cell viability were determined as described above (Fig. 1). (D) TZM-bl cells were infected with HIV-1NL4-3 IRES-eGFP virus along with the compound treatment. Two days later, GFP-expressing cells were observed by fluorescence microscopy (100× magnification). […] At 48 h after infection, the β-gal activity indicating viral infectivity was determined using the β-gal Enzyme Assay kit. F-Luc activity and cell viability were determined as described above (Fig. 4C). (C and E) The dose-response curves show the relative activity compared with that of the DMSO vehicle (mean ± SD; n = 3).

Molecule | EC50 [4] [µM] | EC50 [5] [µM] | EC50 [6] [µM] | EC50 (HIV-1NL4-3 [7]; read-out: EC50) [µM] | time of administration after infection at which effectiveness began to decrease / was lost (HIV-1NL4-3 [8]) [h] | also measured
Cc1c(O)cccc1C(=O)N[C@@H](CSc1ccccc1)[C@H](O)CN1C[C@H]2CCCC[C@H]2C[C@H]1C(=O)NC(C)(C)C [NFV, nelfiravir] |  |  |  |  |  | EC50 [1]: 0.42 ± 0.02 µM; EC50 [2]: 1.64 ± 0.22 µM; EC50 (HIV-1NL4-3 [3]): < 0.001 µM
Nc1nc(NC2CC2)c2ncn([C@H]3C=C[C@@H](CO)C3)c2n1 [ABC, abacavir] | > 100 | > 100 | 22.4 ± 0.39 | 12.2 ± 7.48 |  | 
Nc1ccn([C@@H]2CS[C@H](CO)O2)c(=O)n1 [Compound 3TC, lamivudine] | > 100 | > 100 | 3.64 ± 1.37 |  |  | EC50 (HIV-1NL4-3 [7]): 1.23 ± 0.22 µM
Cc1cn([C@H]2C[C@H](N=[N+]=[N-])[C@@H](CO)O2)c(=O)[nH]c1=O [AZT, zidovudine] | > 100 | 73.12 ± 0.43 | 16.4 ± 1.37 | 0.11 ± 0.01 | 6 | 
enfuvirtide [Compound T-20] |  |  |  |  | 1 | 
CC[C@H](CO)Nc1nc(NCc2ccccc2)c2ncn(C(C)C)c2n1 [seliciclib, reference compound] |  |  |  |  |  | CC50 at 48 h [9]: 39.2 ± 4.09 µM; CC50 at 3 days [10]: 27 ± 1.12 µM; CC50 at 3 days (Cell viability of PBMCs): 21.4 ± 2.1 µM; inhibition of viral-expressed eGFP signal [11]: remarkably inhibited

Reference: publication PMC11459959, “Discovery of new acetamide derivatives of 5-indole-1,3,4-oxadiazol-2-thiol as inhibitors of HIV-1 Tat-mediated viral transcription” (Antimicrobial Agents and Chemotherapy, 2024)
